Experimental data as given in US11795196B2, “Mitochondria-targeting peptides” (Stealth BioTherapeutics Corp., priority 2017, dated 2023).

Legend:
[1] = system: isolated rat hearts; experiment: Ischemia-reperfusion injury, Langendorff isolated heart preparation; details: 30 min LAD occlusion + 120 min reperfusion, compound 1 μM in perfusion solution, mean; for White Necrotic Area, % of area at risk: only white necrotic tissue
[2] = system: rat; experiment: Rat Myocardial Infarction Model; type: in vivo; details: s.c. 2×2 mg/kg, 30 min before ischemia and 5 min before reperfusion, 30 min LAD occlusion, 24 hours post-reperfusion, n=8
Method: The Rat Myocardial Infarction Model was performed by IPST Therapeutique Inc, Sherbrooke, Quebec, Canada. The animals were randomized in terms of even distribution between treatment groups based on their body weight by the Study Director with the aim of scheduling animal from each treatment group for each day of surgery (when possible). • 1) Sham group: size of the group: n=2. Route of administration: n/a; • 2) Vehicle group: size of the group: n=8. Route of administration: s.c.; • 3) Testing article group: size of the group: n=8. Route of administration: s.c.; Treatment dose: 2×2 mg/kg, 30 min before ischemia and 5 min before reperfusion. Experimental Procedures Study Design • 1) On the day of the surgery, the rat will be anaesthetized with a mixture of 2 to 2.5%. isoflurane USP (Abbot Laboratories, Montreal Canada) in oxygen, and placed on a heating pad to maintain body temperature. • 2) The animal will be intubated and immediately ventilated by means of a positive-pressure rodent respirator set at 10 mL/kg bodyweight at a frequency of 65-70 strokes/min. • 3) A baseline blood sample (1 mL) will be taken from the jugular vein for baseline biomarkers quantification. The blood will be collected in lithium heparin microtainers and centrifuged at 3000 rpm, at 4±2° C. for 10 minutes. The plasma will be aliquoted in 2 samples of equal volume (approximately 250 μL). […] A 1 mL blood sample will be taken from the jugular vein, for 24 hrs biomarkers quantification. • 11) The heart will be excised and mounted into a Langendorff apparatus. […]

[3] = system: rat; experiment: Rat Acute Kidney Injury (AKI) Model, renal ischemia-reperfusion; type: in vivo; design: concentration or dose not given beside the values; details: 30 minutes renal artery occlusion of both kidneys, 24 hours after reperfusion, relative to vehicle
Method: The Rat Acute Kidney Injury (AKI) Model was performed by IPST Therapeutique Inc, Sherbrooke, Quebec, Canada. The animals were randomized in terms of even distribution between treatment groups based on their body weight by the Study Director with the aim of scheduling animal from each group at each day of surgery. The rats will be given free access to food and water. Experimental Procedures Induction of Ischemia-Reperfusion • 1. Rats will be anaesthetized with isoflurane USP (Abbot Laboratories, Montreal Canada) 2% in oxygen and placed on a heated pad to maintain body temperature. The ECG and oxygen saturation will be monitored for the entire surgical process. The body temperature will be monitored with a probe thermometer introduced into the abdomen, very close to the kidneys. • 2. A 1 mL blood draw will be taken from the jugular vein. The blood will be collected into lithium heparin tubes and centrifuged at 3000 rpm for 10 min. to obtain the plasma. The plasma will be separated into 200 μL aliquot and stored at −20° C. until dosage of biomarkers. • 3. The abdomen will be disinfected with providone iodine and alaparotomy will be performed. • 4. The kidneys will be exposed and a temporary suture will be placed around renal artery of the two kidneys. Renal ischemia will be visually confirmed by a gradual changed of the kidneys colour going from red to dark purple within a couple of minutes following the start of the ischemia. During the ischemia, the kidneys will be kept moist and warm using a heat lamp and sterile gauze soaked in warm (37° C.) saline. The temperature will be monitored with a probe thermometer introduced into the abdomen, very close to the kidneys. • 5. After 30 minutes of occlusion, the suture will be removed. • 6. The abdominal wounds will be closed with 4-0 silk suture, and the animal will be return to its cage. • 7. Twenty-four hours after reperfusion the rats will be re-anesthetized. A second blood draw will be taken as was done before the ischemia. • 8. Sham will be treated under same conditions as vehicle, except, kidneys will not be subjected to ischemic conditions. Detection of Biomarkers A 200 μL aliquot of plasma sample will be taken before the ischemia and 24 hours following the ischemia; both will be sent to the clinical laboratory of the CHUS (Centre Hospitalier Universitaire de Sherbrooke, Quebec, Canada) for detection of plasma level of creatinine (p.Cr) and Blood Urea Nitrogen (BUN). Computer Systems The following are the validated computer systems to be used during the conduct of this study. The analysis software will be Microsoft Office Excel 2007 installed on networked personal computers running Microsoft Windows8, XP Professional or Vista. Data Analysis Values are presented as means±SEM (standard error of the means) and presented by the symbol+on the graph. Repeat un-paired Student's t-tests were performed in Microsoft Excel 2007 on all experimental data. Differences were considered significant when p≤ 0.05. The vehicle group was compared to the sham group while the test article was compared to the vehicle group. The plasma creatinine post-UR (% mean of vehicle) was calculated using the following formula:
[formula] Where: p.Cr=Plasma creatinine Mean Δ plasma creatinine in sham group=Mean (plasma creatinine 24 h post-isch.−plasma creatinine pre-isch.) in sham group Mean Δ plasma creatinine in vehicle group=Mean ((plasma creatinine 24 h post-inch.−plasma creatinine pre-isch.)−Mean Δ plasma creatinine in sham group) in vehicle group The BUN post-I/R (% mean of vehicle) was calculated using the following formula:
[formula] […]

Row | SMILES | Infarct size, % of area at risk [1] [%] | White Necrotic Area, % of area at risk [1] [%] | Infarct size (%), Mean [2] [%] | BUN, % Protection, Mean [3] [%] | Plasma Creatinine, % Protection, Mean [3] [%]
1 | Cc1cc(O)cc(C)c1C[C@H](NC(=O)[C@H](N)CCCNC(=N)N)C(=O)N[C@@H](CCCCN)c1nc(Cc2ccccc2)no1 [Example 31, (R)-2-amino-N-((S)-1-(((S)-5-amino-1-(3-benzyl-1,2,4-oxadiazol-5-yl)pentyl)amino)-3-(4-hydroxy-2,6-dimethylphenyl)-1-oxopropan-2-yl)-5-guanidinopentanamide] | 35 | 22 | 16.4 | 81.4 | 86.2
2 | Cc1cc(O)cc(C)c1C[C@H](NC(=O)[C@H](N)CCCNC(=N)N)C(=O)N[C@@H](CCCCN)c1nc(Cc2ccc(C(C)(C)C)cc2)no1 [Example 33, (R)-2-amino-N-((S)-1-(((S)-5-amino-1-(3-(4-(tert-butyl)benzyl)-1,2,4-oxadiazol-5 yl)pentyl)amino)-3-(4-hydroxy-2,6-dimethylphenyl)-1-oxopropan-2-yl)-5-guanidinopentanamide] | – | – | – | 35.9 | 38.9
3 | Cc1cc(O)cc(C)c1C[C@H](NC(=O)[C@H](N)CCCNC(=N)N)C(=O)N[C@@H](CCCCN)c1nc(CC23CC4CC(CC(C4)C2)C3)no1 [Example 37, (R)-N-((S)-1-(((S)-1-(3-(adamantan-1-ylmethyl)-1,2,4-oxadiazol-5-yl)-5-aminopentyl)amino)-3-(4-hydroxy-2,6-dimethylphenyl)-1-oxopropan-2-yl)-2-amino-5-guanidinopentanamide] | – | – | 29.2 | 44.3 | 30.7
4 | Cc1cc(O)cc(C)c1C[C@H](NC(=O)[C@H](N)CCCNC(=N)N)C(=O)N[C@@H](CCCCN)c1nc(C23CC4CC(CC(C4)C2)C3)no1 [Example 38, D-Arg-DMT-NH((S)-1-(3-(adamantan-1-yl)-1,2,4-oxadiazol-5-yl)-5-aminopent-1-yl)] | 31 | 15 | 30.6 | – | –
5 | Cc1cc(O)cc(C)c1C[C@H](NC(=O)[C@H](N)CCCn1ccnc1N)C(=O)N[C@@H](CCCN)c1nc(CC2CCCCC2)no1 [Example 42, (R)-2-amino-N-((S)-1-(((S)-4-amino-1-(3-(cyclohexylmethyl)-1,2,4-oxadiazol-5 yl)butyl)amino)-3-(4-hydroxy-2,6-dimethylphenyl)-1-oxopropan-2-yl)-5-(2-amino-1H-imidazol-1-yl)pentanamide] | – | – | – | 50.4 | 53.4
6 | Cc1cc(O)cc(C)c1C[C@H](NC(=O)[C@H](N)CCCNC(=N)N)C(=O)N[C@@H](Cc1c[nH]cn1)c1nc(CCc2ccccc2)no1 [Example 53, (R)-N-((S)-1-(((S)-2-(1H-imidazol-4-yl)-1-(3 phenethyl-1,2,4-oxadiazol-5 yl)ethyl)amino)-3-(4-hydroxy-2,6-dimethylphenyl)-1-oxopropan-2-yl)-2-amino-5-guanidinopentanamide] | 30 | 21 | – | – | –
7 | Cc1cc(O)cc(C)c1C[C@H](NC(=O)[C@H](N)CCNC(=N)N)C(=O)N[C@@H](CCCCN)c1nc(Cc2ccccc2)no1 [Example 64, (R)-2-amino-N-((S)-1-(((S)-5-amino-1-(3-benzyl-1,2,4-oxadiazol-5 yl)pentyl)amino)-3-(4-hydroxy-2,6-dimethylphenyl)-1-oxopropan-2-yl)-4-guanidinobutanamide] | 38 | 20 | – | – | –
8 | Cc1cc(O)cc(C)c1C[C@H](NC(=O)[C@H](N)CCCn1ccnc1N)C(=O)N[C@@H](CCCCN)c1nc(CC2CCCCC2)no1 [Example 65, (R)-2-amino-N-((S)-1-(((S)-5-amino-1-(3-(cyclohexylmethyl)-1,2,4-oxadiazol-5 yl)pentyl)amino)-3-(4-hydroxy-2,6-dimethylphenyl)-1-oxopropan-2-yl)-5-(2-amino-1H-imidazol-1-yl)pentanamide] | 24 | 17 | – | – | –
9 | Cc1cc(O)cc(C)c1C[C@H](NC(=O)[C@H](N)CCNC(=N)N)C(=O)N[C@@H](Cc1c[nH]cn1)c1nc(CC23CC4CC(CC(C4)C2)C3)no1 [Example 68, (R)-N-((S)-1-(((S)-1-(3-(adamantan-1-yl)methyl-1,2,4-oxadiazol-5-yl)-2-(1H-imidazol-4 yl)ethyl)amino)-3-(4-hydroxy-2,6-dimethylphenyl)-1-oxopropan-2-yl)-2-amino-4-guanidinobutanamide] | 35 | 18 | – | – | –
10 | Cc1cc(O)cc(C)c1C[C@H](NC(=O)[C@@H](CCN)NC(=N)N)C(=O)N[C@@H](CCCN)c1nc(Cc2ccccc2)no1 [Example 82, (R)-4-amino-N-((S)-1-(((5)-4-amino-1-(3-benzyl-1,2,4-oxadiazol-5-yl)butyl)amino)-3-(4-hydroxy-2,6-dimethylphenyl)-1-oxopropan-2-yl)-2-guanidinobutanamide] | 42 | 24 | – | 25.5 | 32.0
